The values below come from ChEMBL document CHEMBL4610040, “Addressing hERG activity while maintaining favorable potency, selectivity and pharmacokinetic properties of PPARδ modulators” (Bioorg Med Chem Lett, 2020).

One data set deals with hERG (KCNH2) (Homo sapiens, UniProt Q12809). In words: Inhibition of human ERG expressed in HEK293 cells at 10 uM by semi-automatic patch clamp assay relative to control. It counts as cell-based. To be noted: HEK293 cells that express hERG.
For data set [1], the target named is T1, Peroxisome proliferator-activated receptor alpha (Homo sapiens, UniProt Q07869).
T1 sequence (Q07869 whole entry): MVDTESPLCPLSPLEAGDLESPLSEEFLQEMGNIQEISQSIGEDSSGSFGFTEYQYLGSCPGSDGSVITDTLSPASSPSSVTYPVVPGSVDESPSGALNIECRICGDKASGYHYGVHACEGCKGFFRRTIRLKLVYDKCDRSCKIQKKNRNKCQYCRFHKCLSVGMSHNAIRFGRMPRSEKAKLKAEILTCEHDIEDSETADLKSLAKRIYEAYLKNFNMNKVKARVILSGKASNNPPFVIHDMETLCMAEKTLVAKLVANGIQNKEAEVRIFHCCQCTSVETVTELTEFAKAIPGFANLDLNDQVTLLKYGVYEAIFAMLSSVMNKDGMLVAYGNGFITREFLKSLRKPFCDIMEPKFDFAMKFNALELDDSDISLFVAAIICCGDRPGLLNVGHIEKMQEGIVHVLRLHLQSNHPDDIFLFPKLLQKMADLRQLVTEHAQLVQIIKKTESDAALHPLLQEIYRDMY
The data set can be described thus: Transactivation of GAL4-fused human PPARalpha expressed in African green monkey CV1 cells by luciferase reporter gene assay. It counts as cell-based, CV-1.

The target in data set [2] is T2, Peroxisome proliferator-activated receptor gamma (Homo sapiens, UniProt P37231).
T2 sequence (P37231 whole entry): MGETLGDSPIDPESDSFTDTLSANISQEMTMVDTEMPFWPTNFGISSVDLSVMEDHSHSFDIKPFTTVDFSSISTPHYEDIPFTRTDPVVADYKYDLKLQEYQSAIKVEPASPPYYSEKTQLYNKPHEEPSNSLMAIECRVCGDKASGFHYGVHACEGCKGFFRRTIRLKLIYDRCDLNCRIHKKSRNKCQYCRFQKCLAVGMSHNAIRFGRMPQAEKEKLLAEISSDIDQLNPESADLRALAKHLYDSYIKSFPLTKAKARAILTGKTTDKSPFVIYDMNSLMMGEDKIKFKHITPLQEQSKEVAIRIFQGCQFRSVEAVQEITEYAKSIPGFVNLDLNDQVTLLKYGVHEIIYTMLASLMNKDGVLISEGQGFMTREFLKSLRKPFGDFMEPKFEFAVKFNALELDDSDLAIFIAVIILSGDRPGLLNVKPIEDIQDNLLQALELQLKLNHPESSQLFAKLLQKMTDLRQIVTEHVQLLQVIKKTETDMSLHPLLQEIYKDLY
In words: Transactivation of GAL4-fused human PPARgamma expressed in African green monkey CV1 cells by luciferase reporter gene assay. The data set is classed as cell-based, CV-1.

A short description of data set [3]: AUC (0 to infinity) in CD-1 mouse at 1 mg/kg, iv or 3 mg/kg, po. The data set is classed as ADME, organism-based. To be noted: in vivo.
A short description of data set [4]: Elimination half life in CD-1 mouse at 1 mg/kg, iv or 3 mg/kg, po. It counts as ADME, organism-based. To be noted: in vivo, read-out: beta t1/2 (converted).
Data set [5] in a line: Oral bioavailability in CD-1 mouse at 3 mg/kg. It counts as ADME, organism-based. To be noted: in vivo.
Data set [6] deals with Voltage-gated inwardly rectifying potassium channel KCNH2 (Homo sapiens, UniProt Q12809). The data set can be described thus: Inhibition of human ERG expressed in HEK293 cells by semi-automatic patch clamp assay. It counts as cell-based.
Chain of Voltage-gated inwardly rectifying potassium channel KCNH2 (Q12809 whole entry): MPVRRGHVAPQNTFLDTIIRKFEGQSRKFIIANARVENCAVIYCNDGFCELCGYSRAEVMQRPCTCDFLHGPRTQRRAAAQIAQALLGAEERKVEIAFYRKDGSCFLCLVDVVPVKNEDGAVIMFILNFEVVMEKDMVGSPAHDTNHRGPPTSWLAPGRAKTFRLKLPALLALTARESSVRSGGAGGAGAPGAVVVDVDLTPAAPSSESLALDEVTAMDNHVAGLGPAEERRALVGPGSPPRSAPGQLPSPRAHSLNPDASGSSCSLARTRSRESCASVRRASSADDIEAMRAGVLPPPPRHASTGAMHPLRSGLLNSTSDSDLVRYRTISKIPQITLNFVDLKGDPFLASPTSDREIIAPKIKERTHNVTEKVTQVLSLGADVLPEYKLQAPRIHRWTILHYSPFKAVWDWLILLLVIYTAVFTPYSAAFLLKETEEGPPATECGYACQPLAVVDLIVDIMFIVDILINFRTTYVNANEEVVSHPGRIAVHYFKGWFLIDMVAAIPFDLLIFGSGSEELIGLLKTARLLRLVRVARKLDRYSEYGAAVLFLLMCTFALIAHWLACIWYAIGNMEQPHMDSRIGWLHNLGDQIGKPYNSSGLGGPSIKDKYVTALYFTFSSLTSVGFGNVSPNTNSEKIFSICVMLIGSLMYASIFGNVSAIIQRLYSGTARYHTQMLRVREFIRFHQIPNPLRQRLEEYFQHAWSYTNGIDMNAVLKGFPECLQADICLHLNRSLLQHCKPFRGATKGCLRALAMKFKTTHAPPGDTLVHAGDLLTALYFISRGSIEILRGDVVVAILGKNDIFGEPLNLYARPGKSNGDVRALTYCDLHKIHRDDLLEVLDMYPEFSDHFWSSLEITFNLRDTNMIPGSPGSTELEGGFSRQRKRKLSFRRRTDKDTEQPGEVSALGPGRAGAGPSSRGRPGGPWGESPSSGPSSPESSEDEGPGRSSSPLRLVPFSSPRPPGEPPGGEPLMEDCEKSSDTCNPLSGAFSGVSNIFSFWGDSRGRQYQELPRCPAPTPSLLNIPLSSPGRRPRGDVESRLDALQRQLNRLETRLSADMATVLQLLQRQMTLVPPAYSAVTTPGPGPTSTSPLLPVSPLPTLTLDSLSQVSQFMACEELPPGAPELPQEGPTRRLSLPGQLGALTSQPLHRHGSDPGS

Chain of hERG (KCNH2) (Q12809 whole entry): as above

`CN(Cc1ccccc1OCCCCCC(=O)O)C(=O)c1ccc(-c2ccco2)cc1` returned an inhibition at 10 µM on hERG (KCNH2) below 15%.

The compound `C/C(=C\COc1ccccc1Cc1sc(C)nc1-c1ccc2oc(C)cc2c1)CCC(=O)O` gave an inhibition at 10 µM on hERG (KCNH2) of 14%.

The compound `Cc1cc2cc(-c3ncc(C)n3Cc3ccccc3OCCCCCC(=O)O)ccc2o1` came in with an inhibition at 10 µM against hERG (KCNH2) of 51%.

As to `Cc1cnc(-c2ccc(C#N)cc2)n1Cc1ccccc1OCCC[C@@H](C)CC(=O)O`, at hERG (KCNH2), testing at 10 µM gave an inhibition of 15%.

As to `C[C@H](CCCOc1ccccc1Cn1c(Cl)cnc1-c1ccc(C(F)(F)F)cc1)CC(=O)O`, the EC50 in data set [1] and in data set [2] was above 100 µM each time. Further, in data set [3], the AUC(0-inf) stood at 3880 ng·h/mL. In addition, the half-life in data set [4] is 210 min. In data set [5], the bioavailability is 100%.

In data set [6], `Cc1cnc(-c2ccc(-c3ccco3)cc2)n1Cc1ccccc1OCCCCCC(=O)O` had an IC50 of 5.5 µM.

On to `Cc1nc(-c2cc(F)c(-c3ccco3)c(F)c2)c(Cc2ccccc2OCCC[C@@H](C)CC(=O)O)s1`, for which at 10 µM the inhibition at hERG (KCNH2) was 4%.

`C/C(=C\COc1ccccc1Cc1c(C)cnn1-c1ccc(C(F)(F)F)cc1)CCC(=O)O`: 10 µM produced 4% inhibition against hERG (KCNH2).

For `C[C@H](CCCOc1ccccc1Cn1c(C(F)(F)F)cnc1-c1ccc(C#N)cc1)CC(=O)O`, 10 µM produced 4% inhibition against hERG (KCNH2). For the same compound, the EC50 in data set [1] and in data set [2] was above 100 µM throughout. The compound also registered an AUC(0-inf) in data set [3] of 14700 ng·h/mL.

Take `C[C@H](CCCOc1ccccc1Cn1c(C(F)(F)F)cnc1-c1ccc(C(F)(F)F)cc1)CC(=O)O`: on hERG (KCNH2), at 10 µM the inhibition was 5.7%. Also, the EC50 in data set [1] and in data set [2] was above 100 µM throughout. In data set [3], this compound gave an AUC(0-inf) of 6960 ng·h/mL. Also, the half-life in data set [4] is 348 min. Also, the bioavailability in data set [5] was found to be 70%.

On to `Cc1cnc(-c2ccc(OC(F)(F)F)cc2)n1Cc1ccccc1OCCC[C@@H](C)CC(=O)O`, for which the midpoint of inhibition in data set [6], the IC50, lay at 10 µM.
